Test results from patent US20150307841A1, “Composition for Promoting Differentiation and Proliferation of Neural Stem Cell and Neural Precursor Cell” (priority 2014, published 2015).

Assays:
[1] = system: hippocampal neural precursor cells (NPCs); assay: Immunoblotting assay of VGluT1, ChAT, GAD65/67 in cultured hippocampal neural precursor cells; assay type: cell-based, rat
Text: Pregnant Sprague-Dawley rats purchased from Orient Animal Breeding Center (a branch of Charles River Laboratories, Gyeonggi-do, Korea) were sacrificed by exposing to CO2 inhalation. Hippocampal neural precursor cells (NPCs) were isolated from the brain of the E16 rat embryo according to the method of Shin M H et al. (Exp Mol Med, 2002) with slight modifications.
Briefly, hippocampi were aseptically dissected from the embryonic forebrain, mechanically dissociated in Ca^2+/Mg^2+-free Hank's balanced salt solution (HBSS) and then plated at 7×10^5 cells/cm^2 on 60-mm dishes pre-coated with 15 μg/mL poly-L-ornithine and 1 μg/mL fibronectin. The neural precursor cells were cultured in serum-free N2 media supplemented with 10 ng/mL bFGF in 5% CO2 for 3 days and then detached using 0.05% trypsin-ethylenediaminetetraacetic acid (EDTA). The neural precursor cells were plated on 12-mm cover glasses (Bellco Co., Vineland, N.J., USA) and cultured one more day in N2 media supplemented with 10 ng/mL bFGF in 5% CO2 (primary culturing).
Following the primary culturing in (1), the cultured hippocampal neural precursor cells were lysed in 80 μL of a cold RIPA buffer containing a protease inhibitor cocktail for immunoblotting assay of VGluT1, ChAT and GAD65/67. After centrifugation for 10 minutes at 13,000×g, the supernatants were divided into Eppendorf tubes and stored at −80° C.
Protein quantification assay was performed using a Bradford protein assay kit (Bio-Rad, Hercules, Calif., USA). […]
The number of the VGluT1- and GAD-positive cells in the brain slice samples 1 week and 4 weeks after the administration of soyasaponin I was presented per microscopic field (×400-VGluT1, ×800-GAD67) and the number of the ChAT-positive cells was presented per each hippocampal region (10-12 confocal laser microscopic fields). […] Western blotted membranes were analyzed using the multi-gauge, bio-imaging program on LAS-4000 Mini (Fujifilm Life Science, Stamford, Conn., USA). […]

[2] = system: newly born neural precursor cells in hippocampal tissue slices; assay: Immunohistochemical analysis of BrdU and subtype markers 4 weeks after oral administration (Experimental Example 2); assay type: in vivo, rat; design: Number of BrdU-positive cells and newly born dentate granular cells (DGCs) versus IBO group / Number of cells expressing both NeuN and BrdU versus ibotenic acid-administered group / Cholinergic neurons (total endogenous ChAT-positive cells) at 4 weeks versus 1 week after oral administration: dose or concentration left out as unconfirmed
Text: In order to confirm the survival and differentiation of newly born neural precursor cells 4 weeks after the oral administration of soyasaponin I, it was observed whether the BrdU-expressing cells express a mature neuron marker and cell subtype markers (NeuN, VGluT1, GAD67) simultaneously.
After conducting the 3 behavioral tests, the rats were sacrificed for immunohistochemical analysis. Over 5 animals from each group were used for the immunohistochemical analysis.
Following the same procedure as described in (4) of Experimental Example 2, incubation was performed at 37° C. for 30 minutes in 2 N HCl after permeabilization in 0.5% Triton X-100 for 20 minutes for double staining of BrdU/subtype cell markers ([…], VGluT1, NeuN).
In the immunohistochemical analysis, the number of the cells immnunostained against each antibody was counted from 5 or 6 hippocampal coronal sections. For each staining analysis, every fifth cryosections of the hippocampal region of brain tissues (AP: bregma −4.5 to −4.3 mm) were taken for immunostaining. The number of the immnunostained cells was represented as an average of number of cells in the hippocampal region of one brain slice.
The number of the VGluT1- and GAD-positive cells in the brain slice samples 1 week and 4 weeks after the administration of soyasaponin I was presented per microscopic field (×400-VGluT1, ×800-GAD67) and the number of the ChAT-positive cells was presented per each hippocampal region (10-12 confocal laser microscopic fields). 5-11 animals were used per group. Western blotted membranes were analyzed using the multi-gauge, bio-imaging program on LAS-4000 Mini (Fujifilm Life Science, Stamford, Conn., USA). Densitometeric analysis of the expression ratios of VGluT1/β-actin, GAD65/67/β-actin and ChAT/β-actin was normalized to the vehicle group.

[3] = system: BrdU-positive neural precursor cells in the hippocampal region; assay: Immunohistochemical analysis of BrdU in hippocampus after soyasaponin I administration (Experimental Example 1); assay type: in vivo, rat
Procedure: After conducting the three behavioral tests, the rats were sacrificed for immunohistochemical analysis.
The brain slices of the test animals of the normal group (Sham), the IBO group and the Soya-I group were immunostained by the method of Heo H et al. (J Ethnopharmacol, 2009) with modifications. The rats were transcardially perfused with 4% PFA in PBS. Following fixation by immersing in 4% PFA in PBS for 3 hours, the brain tissues were cryoprotected in 30% sucrose in PBS, frozen with an optimal cutting temperature (OCT) compound and stored at −80° C.
The brain tissue blocks were cryosectioned through the coronal plane at a thickness of 35 μm. The brain tissue sections were stored at 4° C. in a storing solution (30% glycerol and 30% ethylene glycol in PBS). The stored brain slices were permeabilized in 0.5% Triton X-I00 for 20 minutes and incubated at 37° C. for 30 minutes in 2 N HCl. Then, they were blocked in 15% normal serum and 3% bovine serum albumin (BSA, bio-WORLD, Dublin, Ohio, USA) and 0.1% Triton X-100 for 2 hours under a free-floating condition.
The sections were incubated for 16 hours at 4° C. with primary antibodies against bromodeoxyuridine (BrdU) (Sigma). […]
In the immunohistochemical analysis, the number of the cells immnunostained against each antibody was counted from 5 or 6 hippocampal coronal sections. […]

[4] = 4 weeks after oral administration
[5] = soyasaponin I 10 mg/g group (so in the source), 4 weeks after oral administration
[6] = soyasaponin I group (so in the source), 4 weeks after oral administration

C[C@@H]1O[C@@H](O[C@H]2[C@H](O[C@H]3[C@H](O[C@H]4CC[C@@]5(C)[C@@H](CC[C@]6(C)[C@@H]5CC=C5[C@@H]7CC(C)(C)C[C@@H](O)[C@]7(C)CC[C@]56C)[C@@]4(C)CO)O[C@H](C(=O)O)[C@@H](O)[C@@H]3O)O[C@H](CO)[C@H](O)[C@@H]2O)[C@H](O)[C@H](O)[C@H]1O [soyasaponin I]
Expression level of ChAT protein compared to the normal group ([1]; 0.5, 1, 2 μM test groups, normalized to β-actin and vehicle): 1.9 fold | Expression of GAD65/67 protein ([1]; treatment for 6 days): increased relatively little | Expression of VGluT1 protein ([1]; treatment for 6 days): increased relatively little | Number of BrdU-positive cells in hippocampal tissue slices at 4 weeks versus 1 week after oral administration [2, 4]: reduced to less than half | Ratio of the BrdU-positive cells that express VGluT1, NeuN or GAD67 at the same time [2, 4]: no significant difference | BrdU-positive cells among hippocampal cells expressing GFAP, TH and ChAT ([2]; 4 weeks after oral administration, any group): barely detected | Number of BrdU-positive cells expressing GAD67 versus IBO group [2, 5]: 2.8 times | Number of BrdU-positive cells expressing VGluT1 versus IBO group [2, 5]: higher | Cholinergic neurons (total endogenous ChAT-positive cells) at 4 weeks versus 1 week after oral administration ([2]; soyasaponin I group (so in the source)): maintained at a similar level | Number of BrdU-positive cells and newly born dentate granular cells (DGCs) versus IBO group [2, 6]: approximately 3.5 fold | Number of cells expressing both NeuN and BrdU versus ibotenic acid-administered group [2, 6]: 3 times | Dose with greatest rise in number of BrdU-positive cells ([3]; 10 mg/kg oral): largest increase | Number of BrdU-positive cells in the dentate gyrus of the hippocampus versus IBO ([3]; all doses (5, 10, 20 mg/kg) oral): increased significantly
